“And” between values parts separate entries of the source, which are not always exact repeats. Equal entries are not always repeated.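 Results reflect a 48-hour exposure of cells in 96-well plates to compound at five concentrations. GI50 marks 50% less growth.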 The source made the active and inactive calls. Rule as the data show it: active = GI50 up to about 1.1 µM and inactive = higher. Square brackets hold non-standard residues; d marks the D form. Peptide text beside a SMILES is read from it. * marks the point of attachment. ξ: configuration not given here. ξF = NC(Cc1ccccc1)C(=O)O; Cbz = O=C(OCc1ccccc1)*; Aib = CC(C)(N)C(=O)O

Some test systems named below: 786-0; ACHN; BT-549; EKVX; Hs-578T; MDA-MB-435; MDA-N; MOLT-4; NCI-H226; SF-539; SK-MEL-2; SN12C; SNB-19; SW-620; T47D; TK-10; U-251; UO-31; UACC-62; HCC 2998.
Experiment in all cases: NCI-60 cell line screen, 48 h

Regarding `Cn1c2c(c3c(=O)[nH]ncc31)CCc1ccccc1-2`, the GI50 in the test with 786-0 is 25.4 µM (inactive); in the test with ACHN, 25.4 µM (inactive); in the test with BT-549, 23.8 µM (inactive); with EKVX, 12.9 µM (inactive); in the test with Hs-578T it was 10.2 µM (inactive); in the test on MDA-MB-435, 32.1 µM (inactive). Also, the GI50 in the test with MDA-N was 25.9 µM (inactive); with MOLT-4 it was 21.8 µM (inactive); with NCI-H226, 29.4 µM (inactive); in the test on SF-539, 46.5 µM (inactive); in the test with SK-MEL-2, 24.6 µM (inactive); in the test with SN12C, 34.8 µM (inactive). Moreover, the GI50 was 45.8 µM (inactive) with SNB-19; 34.1 µM (inactive) in the test with SW-620; 28.6 µM (inactive) in the test on T47D; 17.7 µM (inactive) in the test on TK-10; 33.5 µM (inactive) in the test with U-251; 22.5 µM (inactive) with UO-31.
For `O=C1C2C(c3ccccc3)NC(c3ccccc3)C1C(c1ccccc1)NC2c1ccccc1` (stereo unspecified), the GI50 in the test on 786-0, in the test on ACHN, in the test with BT-549, in the test on EKVX, in the test with Hs-578T and in the test on MDA-MB-435 was > 100 µM (inactive) in each case. In addition, the GI50 in the test with MDA-N, with MOLT-4, with NCI-H226, in the test on SF-539, in the test on SK-MEL-2 and in the test on SN12C was > 100 µM (inactive) throughout. In addition, the GI50 in the test with SNB-19, in the test with SW-620, in the test with T47D, in the test with TK-10, with U-251 and in the test with UACC-62 was > 100 µM (inactive) each time. The GI50 with UO-31 was > 100 µM (inactive).
With `CC(=O)c1ccc2c(c1)N(CCCN1CCN(CCO)CC1)c1ccccc1C2`, the GI50 was 16.9 µM (inactive) with 786-0; 20.3 µM (inactive) in the test on ACHN; 14.7 µM (inactive) in the test on BT-549; 17.9 µM (inactive) with EKVX; 14.8 µM (inactive) with Hs-578T; 8.71 µM (inactive) with MDA-MB-435. Also, the GI50 was 13 µM (inactive) in the test on MDA-N; 18.4 µM (inactive) with MOLT-4; 14.6 µM (inactive) with NCI-H226; 16.7 µM (inactive) in the test with SF-539; 18.3 µM (inactive) in the test with SK-MEL-2; 16.9 µM (inactive) with SN12C. The GI50 with SNB-19 is 18.9 µM (inactive); in the test on SW-620 it was 14.5 µM (inactive); with T47D, 12.3 µM (inactive); in the test on TK-10 it was 14.7 µM (inactive); in the test with U-251, 15.8 µM (inactive); in the test on UACC-62, 10.8 µM (inactive). The GI50 with UO-31 was 23.8 µM (inactive).
As for `Cc1ccc(/C=C2/N/C(=N\N=C/C(O)C(O)C(O)CO)NC2=O)cc1` (stereo unspecified), the GI50 in the test with 786-0, with ACHN, in the test on BT-549, in the test with EKVX, with Hs-578T and in the test on MDA-MB-435 was > 100 µM (inactive) each time. Further, the GI50 was > 100 µM (inactive) in the test with MDA-N; 63.5 µM (inactive) and 66.2 µM (inactive) in the test on NCI-H226; > 100 µM (inactive) in the test with SF-539; > 100 µM (inactive) in the test with SK-MEL-2; > 100 µM (inactive) with SN12C; > 100 µM (inactive) with SNB-19. Moreover, the GI50 in the test with SW-620 was > 100 µM (inactive); in the test with T47D, 79.4 µM (inactive); in the test on TK-10 it was > 100 µM (inactive); with U-251, > 100 µM (inactive); in the test on UO-31 it was > 100 µM (inactive).
Consider `O=C1CCC(c2ccccc2)(c2ccccc2)CC1`, for which the GI50 in the test on 786-0 is > 100 µM (inactive); with ACHN, > 100 µM (inactive); in the test with BT-549, 83.2 µM (inactive); in the test with EKVX, 92.3 µM (inactive); in the test on Hs-578T, 81.1 µM (inactive); with MDA-MB-435, > 100 µM (inactive). In addition, the GI50 in the test on MDA-N was 45.6 µM (inactive); in the test with MOLT-4, 30.6 µM (inactive); in the test with NCI-H226, 36.6 µM (inactive); in the test on SK-MEL-2, > 100 µM (inactive); with SN12C, 38.1 µM (inactive); with SNB-19, > 100 µM (inactive). Besides, the GI50 with SW-620 is 82.2 µM (inactive); with T47D, 41.5 µM (inactive); in the test on TK-10, 85.9 µM (inactive); in the test with U-251 it was > 100 µM (inactive); in the test with UACC-62, > 100 µM (inactive); in the test on UO-31, 65 µM (inactive).
Consider `CN(C)CCCn1c(Cc2ccccc2)nc2cc(C(F)(F)F)ccc21`, for which the GI50 is 19.1 µM (inactive) with 786-0; 62.8 µM (inactive) with ACHN; 29.2 µM (inactive) in the test on BT-549; 30.1 µM (inactive) with EKVX; 45.6 µM (inactive) with Hs-578T; 15.9 µM (inactive) in the test on MDA-MB-435. Also, the GI50 was 18.3 µM (inactive) in the test on MDA-N; 19.8 µM (inactive) in the test on MOLT-4; 40.3 µM (inactive) in the test on NCI-H226; 17.5 µM (inactive) in the test with SK-MEL-2; 41.6 µM (inactive) in the test on SN12C; 24.1 µM (inactive) in the test on SNB-19. The GI50 in the test on SW-620 was 26.1 µM (inactive); in the test with T47D, 19.9 µM (inactive); in the test with TK-10, 28.8 µM (inactive); in the test with U-251, 20 µM (inactive); in the test with UACC-62, 18.8 µM (inactive); in the test with UO-31 it was 1.91 µM (inactive).
Consider `CC(C)CCCC(C)[C@H]1CC[C@H]2N/C(=N/c3ccccc3)CCC[C@]12C` (stereo partly specified), for which the GI50 is 1.77 µM (inactive) with 786-0; 2.9 µM (inactive) in the test on BT-549; 2.26 µM (inactive) with Hs-578T; 1.88 µM (inactive) with MDA-MB-435; 3.03 µM (inactive) with MDA-N; 1.64 µM (inactive) in the test with MOLT-4. Besides, the GI50 was 1.86 µM (inactive) in the test on NCI-H226; 1.61 µM (inactive) in the test with SF-539; 1.67 µM (inactive) with SK-MEL-2; 1.77 µM (inactive) in the test on SN12C; 2.89 µM (inactive) with SNB-19; 3.21 µM (inactive) in the test on SW-620. In addition, the GI50 in the test on T47D is 3.09 µM (inactive); in the test with TK-10 it was 2.62 µM (inactive); in the test with U-251, 1.82 µM (inactive); with UACC-62 it was 1.85 µM (inactive); in the test on UO-31 it was 1.62 µM (inactive).
With `Nc1ccc(C(=O)c2cn(CCN3CCOCC3)c3ccccc23)c2ccccc12`, the GI50 was 54.6 µM (inactive) in the test on 786-0; 48.9 µM (inactive) in the test with ACHN; 19.1 µM (inactive) with BT-549; 21.2 µM (inactive) with EKVX; 47.2 µM (inactive) with HCC 2998; 28.2 µM (inactive) in the test on Hs-578T. The GI50 with MDA-MB-435 is 27.7 µM (inactive); with MDA-N, 32.5 µM (inactive); in the test with MOLT-4 it was 19.4 µM (inactive); with SF-539 it was 70.8 µM (inactive); in the test on SK-MEL-2, 36.6 µM (inactive); in the test on SNB-19, 75 µM (inactive). For the same molecule, the GI50 in the test with SW-620 is 30.8 µM (inactive); in the test on T47D, 24.4 µM (inactive); with U-251 it was 55.6 µM (inactive); in the test on UACC-62, 34 µM (inactive); with UO-31, 44.4 µM (inactive).
Regarding `CCOC(=O)C(Cl)(Cl)/S(=N\S(=O)(=O)c1ccccc1)NC(=O)c1ccccc1` (stereo unspecified), the GI50 in the test with 786-0, in the test on ACHN, with BT-549, in the test with EKVX, with Hs-578T and in the test with MDA-MB-435 was > 100 µM (inactive) in each case. Also, the GI50 in the test on MDA-N, in the test with MOLT-4, in the test on NCI-H226, in the test with SF-539, in the test with SK-MEL-2 and with SN12C was > 100 µM (inactive) throughout. Besides, the GI50 in the test with SNB-19, in the test with SW-620, in the test on T47D, with TK-10, with U-251 and in the test with UACC-62 was > 100 µM (inactive) in each case. For the same molecule, in the test with UO-31, the GI50 is > 100 µM (inactive).
Regarding `CC(C)(NC(=O)OCc1ccccc1)C(=O)NC(Cc1ccccc1)C(=O)O` (stereo unspecified) (Cbz-[Aib]-[ξF]-OH), the GI50 in the test on 786-0, in the test on BT-549, with Hs-578T, in the test with MDA-MB-435, in the test on MDA-N and in the test on MOLT-4 was > 100 µM (inactive) each time. Further, the GI50 in the test with NCI-H226, in the test with SF-539, with SK-MEL-2, in the test on SN12C, in the test with SNB-19 and in the test on SW-620 was > 100 µM (inactive) in each case. The GI50 in the test on T47D, with U-251, in the test with UACC-62 and in the test with UO-31 was > 100 µM (inactive) each time.
Turning to `c1ccc(CSSSCc2ccccc2)cc1` [DIBENZYL TRISULFIDE], the GI50 with 786-0 was 0.463 µM (active); in the test on ACHN it was 1.69 µM (inactive); with BT-549, 3.27 µM (inactive); in the test on EKVX, 6.52 µM (inactive); in the test with HCC 2998, 5.58 µM (inactive); with Hs-578T it was 8.32 µM (inactive). Further, the GI50 in the test on MDA-MB-435 was 0.568 µM (active); with MDA-N, 1.25 µM (inactive); in the test with MOLT-4, 0.139 µM (active); in the test on SK-MEL-2, 1.08 µM (active); with SN12C, 0.912 µM (active); with SNB-19 it was 15.3 µM (inactive). Besides, the GI50 in the test on SW-620 was 0.115 µM (active); in the test on T47D, 19.8 µM (inactive); with TK-10, 1.62 µM (inactive); in the test on U-251, 2.01 µM (inactive); in the test on UACC-62, 2.15 µM (inactive); with UO-31, 6.55 µM (inactive).

These data come from ChEMBL document CHEMBL1201862, “PubChem BioAssay data set” (2004).
